Target: T1, AsPC-1 HiBiT-KRASG12D (Homo sapiens, UniProt P01116, G12D)
T1 construct: insert the HiBiT tag onto the N-terminus of one or more of the endogenous KRAS alleles; endogenous in cells; host or cells: AsPC-1 (ATCC CRL-1682), CRISPR-Cas9 knock-in clone, one tagged allele
Assay: HiBiT degradation assay (G12D), AsPC-1 HiBiT-KRASG12D cells
Format: cell-based
Settings: 24 hours treatment; for Dmax: ASPC1, AsPC-1 HiBiT-KRASG12D cells, maximum degradation observed; for DC50: AsPC-1 HiBiT-KRASG12D cells, HiBiT luminescence
Summary of the method: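 AsPC-1 cells carried a CRISPR knock-in of an N-terminal HiBiT tag on endogenous KRAS G12D. After 24 h compound treatment at 37 °C (triplicate), viability was read by alamar blue (4 h, fluorescence, normalized to DMSO). HiBiT-KRAS levels were then measured by Nano-Glo HiBiT lytic luminescence after 45 min at room temperature.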

T1 sequence (P01116 1-188 isoform P01116-2 G12D): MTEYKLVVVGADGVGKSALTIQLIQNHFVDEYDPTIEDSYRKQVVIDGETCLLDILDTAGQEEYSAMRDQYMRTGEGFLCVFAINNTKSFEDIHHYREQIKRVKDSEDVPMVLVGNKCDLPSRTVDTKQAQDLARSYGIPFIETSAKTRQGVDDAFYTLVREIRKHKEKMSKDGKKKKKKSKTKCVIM

SMILES	Dmax	DC50
C#Cc1c(F)ccc2cc(O)cc(-c3ncc4c(N5CC6CCC(C5)N6)nc(OCCN5CCC(F)(CN6CCN(c7cc([C@@H](C(=O)N8C[C@H](O)C[C@H]8C(=O)N[C@@H](C)c8ccc(-c9ccnn9C)cc8)C(C)C)on7)CC6)CC5)nc4c3F)c12 [Compound 171, (2S,4R)-1-[(2S)-2-(3-{4-[(1-{2-[(4-{3,8-diazabicyclo[3.2.1]octan-3-yl}-7-(8-ethynyl-7-fluoro-3-hydroxynaphthalen-1-yl)-8-fluoropyrido[4,3-d]pyrimidin-2-yl)oxy]ethyl}-4-fluoropiperidin-4-yl)methyl]piperazin-1-yl}-1,2-oxazol-5-yl)-3-methylbutanoyl]-4-hydroxy-N-[(1S)-1-[4-(1-methyl-1H-pyrazol-5-yl)phenyl]ethyl]pyrrolidine-2-carboxamide]	20 to 60%	1000 to 3000 nM
CCc1cccc2cc(O)cc(-c3ncc4c(N5CC6CCC(C5)N6)nc(OCCN5CC[C@@H]6[C@@H](CCN6c6cc([C@H](C(=O)N7C[C@H](O)C[C@H]7C(=O)N[C@@H](C)c7ccc(-c8scnc8C)cc7)C(C)C)on6)C5)nc4c3F)c12 (relative stereo) [Compound 74, (2S,4R)-1-[(2R*)-2-{3-[(3aR**,7aR***)-5-{2-[(4-{3,8-diazabicyclo[3.2.1]octan-3-yl}-7-(8-ethyl-3-hydroxynaphthalen-1-yl)-8-fluoropyrido[4,3-d]pyrimidin-2-yl)oxy]ethyl}-octahydro-1H-pyrrolo[3,2-c]pyridin-1-yl]-1,2-oxazol-5-yl}-3-methylbutanoyl]-4-hydroxy-N-[(1S)-1-[4-(4-methyl-1,3-thiazol-5-yl)phenyl]ethyl]pyrrolidine-2-carboxamide]	80 to 100%	< 600 nM
C#Cc1c(F)ccc2cc(O)cc(-c3ncc4c(N5CC6CCC(C5)N6)nc(OCCN5CCC(CCOc6cc([C@@H](C(=O)N7C[C@H](O)C[C@H]7C(=O)N[C@@H](C)c7ccc(-c8scnc8C)cc7)C(C)C)on6)CC5)nc4c3F)c12 [Compound 174, (2S,4R)-1-[(2S)-2-{3-[2-(1-{2-[(4-{3,8-diazabicyclo[3.2.1]octan-3-yl}-7-(8-ethynyl-7-fluoro-3-hydroxynaphthalen-1-yl)-8-fluoropyrido[4,3-d]pyrimidin-2-yl)oxy]ethyl}piperidin-4-yl)ethoxy]-1,2-oxazol-5-yl}-3-methylbutanoyl]-4-hydroxy-N-[(1S)-1-[4-(4-methyl-1,3-thiazol-5-yl)phenyl]ethyl] pyrrolidine-2-carboxamide]	80 to 100%	< 600 nM
CCc1cccc2cc(O)cc(-c3ncc4c(N5CC6CCC(C5)N6)nc(OCCN5CCC(F)(CN6CCN(c7cc([C@H](C(=O)N8C[C@H](O)C[C@H]8C(=O)N[C@@H](C)c8ccc(-c9scnc9C)cc8)C(C)C)on7)[C@@H](C)C6)CC5)nc4c3F)c12 [Compound 209, (2S,4R)-1-[(2R)-2-{3-[(2S)-4-[(1-{2-[(4-{3,8-diazabicyclo[3.2.1]octan-3-yl}-7-(8-ethyl-3-hydroxynaphthalen-1-yl)-8-fluoropyrido[4,3-d]pyrimidin-2-yl)oxy]ethyl}-4-fluoropiperidin-4-yl)methyl]-2-methylpiperazin-1-yl]-1,2-oxazol-5-yl}-3-methylbutanoyl]-4-hydroxy-N-[(1S)-1-[4-(4-methyl-1,3-thiazol-5-yl)phenyl]ethyl]pyrrolidine-2-carboxamide]	80 to 100%	< 600 nM
CCc1cccc2cc(O)cc(-c3ncc4c(N5CC6CCC(C5)N6)nc(OCCN5CCC6(CC5)CN(c5cc([C@H](C(=O)N7C[C@H](O)C[C@H]7C(=O)N[C@@H](C)c7ccc(-c8ccnn8C)cc7)C(C)C)on5)C6)nc4c3F)c12 (relative stereo) [Compound 140, (2S,4R)-1-[(2R*)-2-[3-(7-{2-[(4-{3,8-diazabicyclo[3.2.1]octan-3-yl}-7-(8-ethyl-3-hydroxynaphthalen-1-yl)-8-fluoropyrido[4,3-d]pyrimidin-2-yl)oxy]ethyl}-2,7-diazaspiro[3.5]nonan-2-yl)-1,2-oxazol-5-yl]-3-methylbutanoyl]-4-hydroxy-N-[(1S)-1-[4-(1-methyl-1H-pyrazol-5-yl)phenyl]ethyl]pyrrolidine-2-carboxamide]	80 to 100%	< 600 nM
CCc1cccc2cc(O)cc(-c3ncc4c(N5CC6CCC(C5)N6)nc(OC[C@]56CCCN5[C@H](COC(=O)N5CC(Oc7cc([C@@H](C(=O)N8C[C@H](O)C[C@H]8C(=O)N[C@@H](C)c8ccc(-c9scnc9C)cc8)C(C)C)on7)C5)CC6)nc4c3F)c12 [Compound 129, [(3S,7aR)-7a-{[(4-{3,8-diazabicyclo[3.2.1]octan-3-yl}-7-(8-ethyl-3-hydroxynaphthalen-1-yl)-8-fluoropyrido[4,3-d]pyrimidin-2-yl)oxy]methyl}-hexahydro-1H-pyrrolizin-3-yl]methyl 3-({5-[(2S)-1-[(2S,4R)-4-hydroxy-2-{[(1S)-1-[4-(4-methyl-1,3-thiazol-5-yl)phenyl]ethyl]carbamoyl}pyrrolidin-1-yl]-3-methyl-1-oxobutan-2-yl]-1,2-oxazol-3-yl}oxy)azetidine-1-carboxylate]	60 to 80%	< 600 nM
CCc1cccc2cc(O)cc(-c3ncc4c(N5CC6CCC(C5)N6)nc(OCCN5CCC(CN6CCN(c7cc([C@@H](C(=O)N8C[C@H](O)C[C@H]8C(=O)N[C@@H](C)c8ccc(-c9ccnn9C)cc8)C(C)C)on7)CC6)CC5)nc4c3F)c12 [Compound 201, (2S,4R)-1-[(2S)-2-(3-{4-[(1-{2-[(4-{3,8-diazabicyclo[3.2.1]octan-3-yl}-7-(8-ethyl-3-hydroxynaphthalen-1-yl)-8-fluoropyrido[4,3-d]pyrimidin-2-yl)oxy]ethyl}piperidin-4-yl)methyl]piperazin-1-yl}-1,2-oxazol-5-yl)-3-methylbutanoyl]-4-hydroxy-N-[(1S)-1-[4-(1-methyl-1H-pyrazol-5-yl)phenyl]ethyl]pyrrolidine-2-carboxamide]	–	> 3000 nM
CCc1cccc2cc(O)cc(-c3ncc4c(N5CC6CCC(C5)N6)nc(OC[C@@]56CCCN5[C@H](COC(=O)N5CC(COc7cc([C@H](C(=O)N8C[C@H](O)C[C@H]8C(=O)N[C@@H](C)c8ccc(-c9scnc9C)cc8)C(C)C)on7)C5)CC6)nc4c3F)c12 [Compound 114, [(3S,7aS)-7a-{[(4-{3,8-diazabicyclo[3.2.1]octan-3-yl}-7-(8-ethyl-3-hydroxynaphthalen-1-yl)-8-fluoropyrido[4,3-d]pyrimidin-2-yl)oxy]methyl}-hexahydro-1H-pyrrolizin-3-yl]methyl 3-[({5-[(2R)-1-[(2S,4R)-4-hydroxy-2-{[(1S)-1-[4-(4-methyl-1,3-thiazol-5-yl)phenyl]ethyl]carbamoyl}pyrrolidin-1-yl]-3-methyl-1-oxobutan-2-yl]-1,2-oxazol-3-yl}oxy)methyl]azetidine-1-carboxylate]	80 to 100%	< 600 nM
C#Cc1c(F)ccc2cc(O)cc(-c3ncc4c(N5CC6CCC(C5)N6)nc(OC[C@@]56CCCN5[C@H](COc5cc([C@H](C(=O)N7C[C@H](O)C[C@H]7C(=O)N[C@@H](C)c7ccc(-c8scnc8C)cc7)C(C)C)on5)CC6)nc4c3F)c12 [Compound 314, (2S,4R)-1-[(2R)-2-[3-[[(3S,8S)-8-[[4-(3,8-diazabicyclo[3.2.1]octan-3-yl)-7-(8-ethynyl-7-fluoro-3-hydroxy-1-naphthyl)-8-fluoro-pyrido[4,3-d]pyrimidin-2-yl]oxymethyl]-1,2,3,5,6,7-hexahydropyrrolizin-3-yl]methoxy]isoxazol-5-yl]-3-methyl-butanoyl]-4-hydroxy-N-[(1S)-1-[4-(4-methylthiazol-5-yl)phenyl]ethyl]pyrrolidine-2-carboxamide]	80 to 100%	< 600 nM

Reference: patent publication US20250206732A1, “COMPOUNDS AND METHODS FOR THE TARGETED DEGRADATION OF KRAS” (Arvinas Operations, Inc., priority 2022, published 2025)
